In patent US9340568B2, “Solid forms of an antiviral compound” (Gilead Pharmasset LLC, priority 2013, dated 2016):

Experiment: Dynamic vapor sorption (DVS) moisture sorption isotherm
Format: physicochemical
Details: relative humidity (RH) of 90%, sorption cycle 1
Procedure: DVS isotherms were generated on a Surface Measurement Systems Dynamic Vapor Sorption Advantage moisture sorption analyzer. Water adsorption and desorption were studied as a function of relative humidity over the range of 0 to 90% RH using 10% RH steps with a fixed equilibration time of 60 minutes per step.

| Compound | change in mass as measured by dynamic vapor sorption (DVS) |
| --- | --- |
| CC(C)OC(=O)[C@H](C)N[P@](=O)(OC[C@H]1O[C@@H](n2ccc(=O)[nH]c2=O)[C@](C)(F)[C@@H]1O)Oc1ccccc1 [Compound I, Form 7, (S)-isopropyl 2-((S)-(((2R,3R,4R,5R)-5-(2,4-dioxo-3,4-dihydropyrimidin-1(2H)-yl)-4-fluoro-3-hydroxy-4-methyltetrahydrofuran-2-yl)methoxy)(phenoxy)phosphorylamino) propanoate] | about 0.15% |
| CC(C)OC(=O)[C@H](C)N[P@](=O)(OC[C@H]1O[C@@H](n2ccc(=O)[nH]c2=O)[C@](C)(F)[C@@H]1O)Oc1ccccc1 [Compound I, Form 8, (S)-isopropyl 2-(((S)-(((2R,3R,4R,5R)-5-(2,4-dioxo-3,4-dihydropyrimidin-1(2H)-yl)-4-fluoro-3-hydroxy-4-methyltetrahydrofuran-2-yl)methoxy)(phenoxy)phosphoryl)amino) propanoate] | about 0.17% |
